Data from patent US4450269A, “Mono-5-substituted-3-chloro-4H-1,2,6-thiadiazin-4-one antifungal agents” (FMC Corporation, priority 1980, dated 1984).
Where two headings read alike, the source gives them in different places.

What was measured:
[1] = system: Pythium ultimum; assay: Mycelial growth test; type: cell-based; conditions: Globisporangium ultimum, 72 h, PU, read-out: Percent Fungus Growth Inhibition
[2] = system: Sclerotinia fructicola; assay: Mycelial growth test; type: cell-based; conditions: Sclerotinia, 72 h, SF, read-out: Percent Fungus Growth Inhibition
Description: | SF = Sclerotinia fructicola

[3] = system: Rhizoctonia solani; assay: Mycelial growth test; type: cell-based; conditions: Rhizoctonia solani, 72 h, RS, read-out: Percent Fungus Growth Inhibition
Description: | RS = Rhizoctonia solani

[4] = system: Pyricularia oryzae; assay: whole plant or invertebrate; type: in vivo; conditions: Pyricularia oryzae, foliar, 24 h, read-out: Percent Disease Control, curative, rice blast, 150 ppm, 24 hours after inoculation
[5] = system: Helminthosporium oryzae; assay: Mycelial growth test; conditions: Bipolaris oryzae, 72 h
[6] = system: Alternaria solani; assay: Mycelial growth test; type: cell-based; conditions: Alternaria solani, 72 h, AS, read-out: Percent Fungus Growth Inhibition
[7] = system: Fusarium solani; assay: Mycelial growth test; type: cell-based; conditions: Fusarium solani, 72 h, PS, 72 hours, read-out: Percent Fungus Growth Inhibition
[8] = system: Phytophthora infestans; assay: whole plant or invertebrate; type: in vivo; conditions: Phytophthora infestans, in Solanum lycopersicum, foliar, read-out: Percent Disease Control, foliar, tomato late blight, 150 ppm, protective
[9] = system: Fusarium solani; assay: Soil treatment, bean root rot; type: in vivo; conditions: Fusarium solani, soil, 336 h; 150 ppm suspension, 3.8 mg active per pot; read-out: Percent Disease Control, seed/soil, bean root rot
Experimental: In a similar manner the soil around a bean seedling was drenched with a sufficient amount of 150 ppm suspension of test chemical to provide 3.8 mg active per pot. Twenty-four hours later the soil was inoculated with a suspension of minced mycelium of Fusarium solani. The inoculated plants were then placed in a greenhouse, evaluated after fourteen days, and percent control of root rot damage calculated. The results, reported in Table III, indicate only a few of the compounds tested are effective in treating Bean Root Rot but that these provide a high degree of control.

[10] = system: Erysiphe polygoni; assay: whole plant or invertebrate; conditions: foliar, 24 h, read-out: Percent Disease Control, curative, bean powdery mildew
[11] = system: Cercospora beticola; assay: whole plant or invertebrate; conditions: in Beta vulgaris, foliar, 24 h, read-out: Percent Disease Control, curative, sugar beet leaf spot
[12] = system: Uromyces phaseoli; assay: whole plant or invertebrate; conditions: foliar, read-out: Percent Disease Control, foliar, bean rust
[13] = system: Uromyces phaseoli; assay: whole plant or invertebrate; conditions: foliar, 24 h, read-out: Percent Disease Control, curative, bean rust
[14] = system: Pyricularia oryzae; assay: microbe, parasite or virus in culture; type: cell-based; conditions: Pyricularia oryzae, 72 h

O=c1c(Cl)nsnc1Cl [Compound 1, 3,5-dichloro-4H--1,2,6-thiadiazin-4-one] showed an inhibition at 2.5 ppm ([1]; 2.5 ppm) of 0%, an inhibition at 5 ppm ([1]; 5 ppm) of 0% and an inhibition at 10 ppm ([1]; 10 ppm) of 100%. The inhibition at 2.5 ppm ([2]; 2.5 ppm) was 100%, the inhibition at 5 ppm ([2]; 5 ppm) was 100% and the inhibition at 10 ppm ([2]; 10 ppm) was 100%. For the same compound, the inhibition at 2.5 ppm ([3]; 2.5 ppm) was 100%, the inhibition at 5 ppm ([3]; 5 ppm) was 64% and the inhibition at 10 ppm ([3]; 10 ppm) was 100%. For the same compound, the pest or weed control at 150 ppm [4] was 0%, the inhibition at 2.5 ppm ([5]; read-out: Percent Fungus Growth Inhibition, HO, 2.5 ppm, 72 hours) was 100% and the inhibition at 5 ppm ([5]; read-out: Percent Fungus Growth Inhibition, HO, 5 ppm, 72 hours) was 100%. The inhibition at 10 ppm ([5]; read-out: Percent Fungus Growth Inhibition, HO, 10 ppm, 72 hours) was 100%, the inhibition at 2.5 ppm ([6]; 2.5 ppm) was 100% and the inhibition at 5 ppm ([6]; 5 ppm) was 100%. It also gave an inhibition at 10 ppm ([6]; 10 ppm) of 100%, an inhibition at 2.5 ppm ([7]; 2.5 ppm) of 85% and an inhibition at 5 ppm ([7]; 5 ppm) of 100%. It also gave an inhibition at 10 ppm ([7]; 10 ppm) of 100%, a pest or weed control at 150 ppm [8] of 0% and a pest or weed control at 150 ppm, 3.8 mg/pot [9] of 0%. The pest or weed control at 150 ppm [10] was 0%, the pest or weed control at 150 ppm [11] was 0% and the pest or weed control at 150 ppm [12] was 0%. For the same compound, the pest or weed control at 150 ppm [13] was 0%, the inhibition at 2.5 ppm ([14]; read-out: Percent Fungus Growth Inhibition, PO, 2.5 ppm, 72 hours) was 27% and the inhibition at 5 ppm ([14]; read-out: Percent Fungus Growth Inhibition, PO, 5 ppm, 72 hours) was 42%. For the same compound, the inhibition at 10 ppm ([14]; read-out: Percent Fungus Growth Inhibition, PO, 10 ppm, 72 hours) was 82%.
